Assay results taken from ChEMBL document CHEMBL5042497, “Design, synthesis, and biological evaluation of carbamate derivatives of N-salicyloyl tryptamine as multifunctional agents for the treatment of Alzheimer's disease” (Eur J Med Chem, 2022).
Calls of active or inactive are those of the source. No cut-off for these calls is given here.

Key:
Acetylcholinesterase [1] = molecular target: T1, Acetylcholinesterase (Electrophorus electricus, UniProt O42275); experiment: Inhibition of electric eel AChE using acetylthiocholine iodide as substrate assessed as inhibition constant at 0.78 to 12.5 uM preincubated for 10 mins followed by substrate addition and measured for 15 mins by Lineweaver-Burk plot analysis
T1 sequence (O42275 whole entry): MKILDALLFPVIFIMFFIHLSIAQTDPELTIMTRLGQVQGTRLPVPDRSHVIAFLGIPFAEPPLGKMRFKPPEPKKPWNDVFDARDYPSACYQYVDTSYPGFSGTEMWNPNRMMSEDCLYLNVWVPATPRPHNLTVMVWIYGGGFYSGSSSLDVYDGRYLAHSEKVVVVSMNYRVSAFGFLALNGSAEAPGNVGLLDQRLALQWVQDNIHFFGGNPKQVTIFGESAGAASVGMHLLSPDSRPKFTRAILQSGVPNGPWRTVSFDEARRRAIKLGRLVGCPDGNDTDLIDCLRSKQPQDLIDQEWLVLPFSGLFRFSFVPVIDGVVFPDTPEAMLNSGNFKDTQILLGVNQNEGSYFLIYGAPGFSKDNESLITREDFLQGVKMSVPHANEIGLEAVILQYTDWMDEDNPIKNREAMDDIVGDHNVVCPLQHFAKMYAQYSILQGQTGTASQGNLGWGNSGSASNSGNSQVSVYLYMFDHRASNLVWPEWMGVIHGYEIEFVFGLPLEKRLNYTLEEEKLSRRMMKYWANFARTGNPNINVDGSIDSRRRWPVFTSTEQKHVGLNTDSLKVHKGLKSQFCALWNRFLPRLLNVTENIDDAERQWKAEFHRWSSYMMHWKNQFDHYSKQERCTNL

Cholinesterase [2] = molecular target: T2, Cholinesterase (Equus caballus, UniProt P81908); experiment: Inhibition of equine serum BChE using butyrylthiocholine iodide as substrate assessed as inhibition constant at 0.78 to 12.5 uM preincubated for 10 mins followed by substrate addition and measured after 15 mins by Lineweaver-Burk plot analysis
T2 sequence (P81908 whole entry): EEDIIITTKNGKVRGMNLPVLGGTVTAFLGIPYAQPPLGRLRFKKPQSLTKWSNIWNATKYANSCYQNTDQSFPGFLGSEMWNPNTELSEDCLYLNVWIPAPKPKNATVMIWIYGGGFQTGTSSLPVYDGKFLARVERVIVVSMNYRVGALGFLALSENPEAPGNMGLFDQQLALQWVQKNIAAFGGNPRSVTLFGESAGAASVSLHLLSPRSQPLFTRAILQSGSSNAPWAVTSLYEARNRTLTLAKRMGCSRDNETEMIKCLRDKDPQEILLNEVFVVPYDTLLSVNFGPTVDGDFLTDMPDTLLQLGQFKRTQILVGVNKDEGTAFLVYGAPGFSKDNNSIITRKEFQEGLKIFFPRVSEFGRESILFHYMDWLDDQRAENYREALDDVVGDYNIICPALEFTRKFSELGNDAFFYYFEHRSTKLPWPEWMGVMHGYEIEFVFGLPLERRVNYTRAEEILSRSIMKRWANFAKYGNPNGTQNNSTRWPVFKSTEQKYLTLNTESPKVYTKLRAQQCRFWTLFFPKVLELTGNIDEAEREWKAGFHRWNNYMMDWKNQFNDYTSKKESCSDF

Cholinesterase [3] = molecular target: T2, Cholinesterase; experiment: Inhibition of equine serum BChE using butyrylthiocholine iodide as substrate preincubated for 10 mins followed by substrate addition and measured after 15 mins by Ellman's method
Acetylcholinesterase [4] = molecular target: T1, Acetylcholinesterase; experiment: Inhibition of electric eel AChE using acetylthiocholine iodide as substrate preincubated for 10 mins followed by substrate addition and measured for 15 mins by Ellman's method
BV-2 [5] = experiment: cells; format: functional, cell-based; settings: Mus musculus, BV-2, 24 h
Description: Cytotoxicity against mouse BV-2 cells assessed as reduction in cell viability measured after 24 hrs by MTT assay

HT-22 = experiment: cells; format: functional, cell-based; settings: Mus musculus, HT-22, 24 h
Description: Cytotoxicity against mouse HT-22 cells assessed as reduction in cell viability measured after 24 hrs by MTT assay

[6] = molecular target: Amyloid-beta precursor protein (Homo sapiens) (UniProt P05067); experiment: Inhibition of amyloid beta (1 to 42 ) (unknown origin) aggregation at 20 umol/L incubated for 24 hrs by thioflavin-T fluorescence method relative to control; settings: dose 20.0 µmol/L
Sequence of Amyloid-beta precursor protein (Homo sapiens) (P05067 whole entry): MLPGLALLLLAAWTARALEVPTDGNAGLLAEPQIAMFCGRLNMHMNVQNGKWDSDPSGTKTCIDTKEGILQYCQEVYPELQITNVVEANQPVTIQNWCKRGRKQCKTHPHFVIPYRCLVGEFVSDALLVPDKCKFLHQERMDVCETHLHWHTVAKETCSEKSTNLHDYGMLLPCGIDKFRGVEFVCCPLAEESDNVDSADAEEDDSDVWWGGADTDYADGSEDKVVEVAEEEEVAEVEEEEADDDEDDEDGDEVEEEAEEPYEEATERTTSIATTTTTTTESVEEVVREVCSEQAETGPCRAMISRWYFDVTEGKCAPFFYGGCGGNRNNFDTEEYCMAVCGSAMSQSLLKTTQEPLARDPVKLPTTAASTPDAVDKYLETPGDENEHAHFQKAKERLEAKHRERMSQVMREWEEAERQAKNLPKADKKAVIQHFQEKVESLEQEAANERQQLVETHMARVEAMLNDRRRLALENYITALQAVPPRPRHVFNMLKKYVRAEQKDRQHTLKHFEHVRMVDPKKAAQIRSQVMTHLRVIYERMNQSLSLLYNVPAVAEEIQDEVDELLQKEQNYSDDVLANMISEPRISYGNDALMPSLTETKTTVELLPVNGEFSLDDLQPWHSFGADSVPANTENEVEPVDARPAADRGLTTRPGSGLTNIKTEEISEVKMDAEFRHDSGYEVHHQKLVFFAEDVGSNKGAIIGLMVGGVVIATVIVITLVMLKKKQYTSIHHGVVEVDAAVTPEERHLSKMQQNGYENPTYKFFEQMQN

BV-2 [7] = experiment: Anti-neuroinflammation in mouse BV-2 cells assessed as increase in LPS-induced IL-4 production measured after 24 hrs by ELISA; format: functional, cell-based; settings: dose 6.25-25 µmol/L
BV-2 [8] = experiment: Anti-neuroinflammation in mouse BV-2 cells assessed as decrease in LPS-induced IL-6 production at 6.25 to 25 umol/L measured after 24 hrs by ELISA; format: functional, cell-based; settings: dose 6.25-25 µmol/L
BV-2 [9] = experiment: Anti-neuroinflammation in mouse BV-2 cells assessed as inhibition of LPS-induced NO production at 100 to 3.125 umol/L measured after 24 hrs by Griess method; format: functional, cell-based; settings: dose 100-3.125 µmol/L
BV-2 [10] = experiment: Effect of compound on LPS- induced iNOS production in mouse BV-2 cells incubated for 24 hrs by western blot analysis; format: functional, cell-based; settings: dose 6.25-25 µM
BV-2 [11] = experiment: Effect of compound on LPS- induced ROS production in mouse BV-2 cells at 6.25 to 25 uM by microscopic analysis; format: functional, cell-based; settings: dose 6.25-25 µM
[12] = Acute toxicity in Sprague-Dawley rat assessed as behavioral abnormality at 2000 mg/kg, IG administered as single dose measured after 14 days; format: organism-based; settings: in vivo, po, 336 h, time 14 day
[13] = Acute toxicity in Sprague-Dawley rat assessed as abnormality in diet at 2000 mg/kg, IG administered as single dose measured after 14 days; format: organism-based; settings: in vivo, po, 336 h, time 14 day
[14] = Acute toxicity in Sprague-Dawley rat assessed as abnormality in body weight at 2000 mg/kg, IG administered as single dose measured after 14 days; format: organism-based; settings: in vivo, po, 336 h, time 14 day
[15] = Acute toxicity in Sprague-Dawley rat assessed as histological changes in heart at 2000 mg/kg, IG administered as single dose measured after 14 days by H and E staining based analysis; format: organism-based; settings: in vivo, po, 336 h, time 14 day
[16] = Acute toxicity in Sprague-Dawley rat assessed as histological changes in liver at 2000 mg/kg, IG administered as single dose measured after 14 days by H and E staining based analysis; format: organism-based; settings: in vivo, po, 336 h, time 14 day
[17] = Acute toxicity in Sprague-Dawley rat assessed as histological changes in spleen at 2000 mg/kg, IG administered as single dose measured after 14 days by H and E staining based analysis; format: organism-based; settings: in vivo, po, 336 h, time 14 day
[18] = Acute toxicity in Sprague-Dawley rat assessed as histological changes in brain at 2000 mg/kg, IG administered as single dose measured after 14 days by H and E staining based analysis; format: organism-based; settings: in vivo, po, 336 h, time 14 day
Mus musculus [19] = experiment: Anti-alzheimer activity against scopolamine-induced cognitive dysfunction mouse model assessed as decrease in swimming distance at 100 mg/kg, po dosed for 10 days and measured after 30 mins on day 11 by Morris water maze test; format: functional, organism-based; settings: time 10.0 day
[20] = Half life in Sprague-Dawley rat at 100 mg/kg, po measured upto 24 hrs by LC-MS analysis; format: ADME, organism-based; settings: in vivo
[21] = Tmax in Sprague-Dawley rat at 100 mg/kg, po measured upto 24 hrs by LC-MS analysis; format: ADME, organism-based; settings: in vivo
[22] = Cmax in Sprague-Dawley rat at 100 mg/kg, po measured upto 24 hrs by LC-MS analysis; format: ADME, organism-based; set-up: route oral, dose 100 mg/kg, time <=24; settings: in vivo
[23] = AUC (0 to t) in Sprague-Dawley rat at 100 mg/kg, po measured upto 24 hrs by LC-MS analysis; format: ADME, organism-based; set-up: route oral, dose 100 mg/kg, time <=24; settings: in vivo
[24] = MRT(0 to t) in Sprague-Dawley rat at 100 mg/kg, po measured upto 24 hrs by LC-MS analysis; format: ADME, organism-based; settings: in vivo
Mus musculus [25] = experiment: Anti-alzheimer activity against scopolamine-induced cognitive dysfunction mouse model assessed as increase in movement distance in central and peripheral area at 50 to 100 mg/kg,po dosed for 10 days and measured after 30 mins on day 11 by open field test; format: functional, organism-based; settings: dose 50-100 mg/kg, time 10.0 day
Mus musculus [26] = experiment: Anti-alzheimer activity against scopolamine-induced cognitive dysfunction mouse model assessed as increase in rate of time spend in central and peripheral area at 50 to 100 mg/kg,po dosed for 10 days and measured after 30 mins on day 11 by open field test; format: functional, organism-based; settings: dose 50-100 mg/kg, time 10.0 day
Mus musculus [27] = experiment: Anti-alzheimer activity against scopolamine-induced cognitive dysfunction mouse model assessed as […] of AChE activity in hippocampus at 50 to 100 mg/kg, po dosed for 10 days by colorimetric analysis; format: functional, organism-based; settings: dose 50-100 mg/kg, time 10.0 day
Mus musculus [28] = experiment: Anti-alzheimer activity against scopolamine-induced cognitive dysfunction mouse model assessed as change in neuron damage in hippocampal CA1 region at 50 to 100 mg/kg, po measured after 10 days by Nissl staining based assay; format: functional, organism-based; settings: Hippocampus, dose 50-100 mg/kg, time 10.0 day
Mus musculus [29] = experiment: Anti-alzheimer activity against scopolamine-induced cognitive dysfunction mouse model assessed as change in neuron damage in hippocampal CA3 region at 50 to 100 mg/kg, po measured after 10 days by Nissl staining based assay; format: functional, organism-based; settings: Hippocampus, dose 50-100 mg/kg, time 10.0 day
BV-2 [30] = experiment: Anti-neuroinflammation in mouse BV-2 cells assessed as decrease in LPS-induced TNF-alpha production at 6.25 to 25 umol/L measured after 24 hrs by ELISA; format: functional, cell-based; settings: dose 6.25-25 µmol/L
BV-2 [31] = experiment: Anti-neuroinflammation in mouse BV-2 cells assessed as decrease in LPS-induced iNOS activity at 6.25 to 25 umol/L by fluorescence based assay; format: functional, cell-based; settings: dose 6.25-25 µmol/L
[32] = Acute toxicity in Sprague-Dawley rat assessed as abnormality in living off at 2000 mg/kg, IG administered as single dose measured after 14 days; format: organism-based; settings: in vivo, po, 336 h, time 14 day
[33] = Acute toxicity in Sprague-Dawley rat assessed as lethal dose administered intragastrically as single dose measured after 14 days; settings: in vivo, po, time 14 day
in vivo = settings: Sprague-Dawley, rat, brain/plasma, 100 mg/kg
Description: Ratio of drug concentration in brain to plasma in Sprague-Dawley rat at 100 mg/kg measured at 10 mins by LC-MS analysis

SMILES: CON(C)C(=O)Oc1ccccc1C(=O)NCCc1c[nH]c2ccccc12
- Ki (Acetylcholinesterase [1]): 1600 nM
- Ki (Cholinesterase [2]): 892 nM
- IC50 (Cholinesterase [3]): 1840 nM
- IC50 (Acetylcholinesterase [4]): 3240 nM
- IC50 (BV-2 [5]): 197000 nM
- IC50 (HT-22): 140000 nM
- inhibition [6]: 40.3%
- Activity (BV-2 [7]): Dose-Dependent Effect
- Activity (BV-2 [8]): Active
- Activity (BV-2 [9]): Active
- Activity (BV-2 [10]): Dose-Dependent Effect
- Activity (BV-2 [11]): Active
- Activity [12]: Non-Toxic
- Activity [13]: Non-Toxic
- Activity [14]: Non-Toxic
- Activity [15]: Non-Toxic
- Activity [16]: Non-Toxic
- Activity [17]: Non-Toxic
- Activity [18]: Non-Toxic
- Activity (Mus musculus [19]): Active
- half-life [20]: 5.34 h
- Tmax [21]: 4.8 min
- Cmax [22]: 3030 ng/mL
- AUC(0-t) at 24 h [23]: 3900 ng·h/mL
- MRT last at 24 h [24]: 4.89 h
- Activity (Mus musculus [25]): Dose-Dependent Effect
- Activity (Mus musculus [26]): Dose-Dependent Effect
- Activity (Mus musculus [27]): Active
- Activity (Mus musculus [28]): Active
- Activity (Mus musculus [29]): Active
- Activity (BV-2 [30]): Active
- Activity (BV-2 [31]): Active
- Activity [32]: Non-Toxic
- LD50 at 336 h [33]: > 2000 mg/kg
- Kp at 10 min (in vivo): 15.7
